Reference: article PMC10714424, “Discovery of a Potent Dual Inhibitor of Aromatase and Aldosterone Synthase” (ACS Pharmacology & Translational Science, 2023)
Like-named read-outs stand apart in the source and are kept apart here. Values belong to the molecule of their own block, whether it stands above or below them.

What was measured:
[1] = target: CYP11B1 (11β-Hydroxylase); settings: cited from earlier work
[2] = test system: CYP11B2 (Aldosterone Synthase); settings: cited from earlier work
[3] = test system: MCF-7 cells; experiment: Cell proliferation assay (trypan blue cell count); format: cell-based, human; settings: read-out: antiproliferative IC50
Description: MCF-7 and MDA-MB-231 cells were plated in 24-well plates and allowed to attach overnight. […] At the end of the treatment, viable cells (evaluated by trypan blue dye exclusion) were counted with a hemocytometer.

[4] = target: T1, CYP19A1 (Aromatase) (Homo sapiens, UniProt P11511); experiment: Aromatase (CYP19A1) Inhibitor Screening Kit, recombinant enzyme; format: biochemical
T1 construct: purchased BioVision K984-100
T1 sequence (P11511 1-503): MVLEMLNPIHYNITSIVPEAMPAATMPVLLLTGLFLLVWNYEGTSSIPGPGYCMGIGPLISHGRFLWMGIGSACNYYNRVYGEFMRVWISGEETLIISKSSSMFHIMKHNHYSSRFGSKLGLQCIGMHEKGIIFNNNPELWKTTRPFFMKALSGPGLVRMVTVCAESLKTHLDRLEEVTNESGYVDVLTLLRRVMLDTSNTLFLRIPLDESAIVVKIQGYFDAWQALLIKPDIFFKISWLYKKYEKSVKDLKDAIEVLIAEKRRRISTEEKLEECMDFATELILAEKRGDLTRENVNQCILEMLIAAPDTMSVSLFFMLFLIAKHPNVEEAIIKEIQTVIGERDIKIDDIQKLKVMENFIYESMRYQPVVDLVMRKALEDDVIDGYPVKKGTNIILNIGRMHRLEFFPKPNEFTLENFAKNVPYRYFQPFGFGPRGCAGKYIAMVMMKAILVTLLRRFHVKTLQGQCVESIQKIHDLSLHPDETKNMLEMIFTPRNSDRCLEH
Description: The in vitro tests on Aromatase were performed by using the Kit Cat# K984-100 assay kit; the Regeneration System, 100× and NADP^+: (100×), 10 mM were used as reaction buffer. In particular, the enzyme was first prepared with the Regeneration System and substrate with NADP^+ in freshly prepared reaction buffer. Then, the resulting solution was delivered into the reaction well.

IC50 ([3]; Homo sapiens, MCF7, 24 h, MCF-7, 24 h): 764 ± 114 nM | IC50 ([3]; Homo sapiens, MCF7, 48 h, MCF-7, 48 h): 599 ± 333 nM | IC50 ([3]; Homo sapiens, MCF7, 72 h, MCF-7, 72 h): 121 ± 30 nM | IC50 ([3]; MCF-7, 72 h): 120 ± 30 nM
SMILES: N#Cc1ccc(C(c2ccc(C#N)cc2)n2cncn2)cc1 [letrozole]
IC50 [1]: 2620 nM | IC50 [2]: 1420 nM

inhibition of CYP19A1 [4]: no inhibition
SMILES: OCc1cnc(S)n1Cc1ccc(Cl)cc1Cl [X1]

melting point: 225.4 to 226.9 °C
SMILES: O=[N+]([O-])c1cc(C(F)(F)F)ccc1Sc1ncc(CO)n1Cc1ccccc1 [X12, (1-Benzyl-2-((2-nitro-4-(trifluoromethyl)phenyl)thio)-1H-imidazol-5-yl)methanol]
